Read-outs that look alike come from different tables or passages of the source.
Experiments:
[1] = Food effect on pharmacokinetics of COMPOUND 1 in healthy subjects (phase 1, open-label, randomized, two-period crossover); format: in vivo, human; settings: for Tmax / half-life / AUC(0-inf) / AUC(0-t) / Cmax: plasma, single oral dose 500 mg
Protocol: The food effect on COMPOUND 1 PK following administration of a single oral dose of 500 mg of COMPOUND 1 in healthy subjects aged 18-55 years was evaluated in a was a phase 1, open-label, randomized, two-period crossover study.
The study was conducted according to the United States Food and Drug Administration (FDA) 2002 Guidance for Industry “Food-Effect Bioavailability and Fed Bioequivalence Studies”.
Treatments A and B, each comprising a single oral dose of 500 mg of COMPOUND 1, were administered as shown in Table 1. • A (fasted): two 250 mg tablets administered after an overnight fast (approximately 10 hr). • B (fed): two 250 mg tablets administered after a standardized high-fat breakfast, consumed within 30 minutes prior to COMPOUND 1 dosing.
The standardized FDA high-fat content meal contains the equivalent of ˜150 protein calories, ˜250 carbohydrate calories, and ˜500-600 fat calories, and comprises two eggs fried in butter, two strips of bacon, two slices of toast with butter, four ounces of hash brown potatoes (fried with butter), and eight ounces (240 mL) of whole milk.
Of the 30 subjects enrolled, 15 were randomized to sequence AB and 15 were randomized to sequence BA.
Blood samples for the analysis of COMPOUND 1 concentrations were collected predose and 0.5, 1, 2, 3, 4, 6, 9, 12, 24, 48, 72, 120, 168, 240, 336, and 504 hr postdose. Plasma concentrations of COMPOUND 1 were determined using a validated liquid chromatography with tandem mass spectrometry method. PK parameters were calculated using WinNonlin (Pharsight Corporation, Version 6.2.1). Linear mixed model analysis was performed on natural logarithm (In) transformed maximum observed concentration (Cmax), area under the concentration-time curve from Hour 0 to the last measurable concentration (AUC0-t), and area under the concentration-time curve extrapolated to infinity (AUC0-∞). The analyses were performed using the SAS MIXED procedure. […] Inter-subject variability was determined using the geometric coefficient of variation percent (CV %).

[2] = Safety and tolerability of a single oral dose of 500 mg COMPOUND 1 in healthy subjects; format: in vivo, human; settings: single oral dose of 500 mg, fed and fasted conditions
Protocol: Safety and tolerability were also evaluated for a single oral dose of 500 mg of COMPOUND 1.
Incidence of adverse events and serious adverse events was assessed.

[3] = fed condition (test) versus fasted condition (reference), 500 mg, n = 27
[4] = high-fat meal compared with fasted condition, 500 mg single oral dose
[5] = human, po, 500 mg, fasted, n = 29, geometric mean
[6] = human, po, 500 mg, fed (high-fat meal), n = 27, geometric mean

Compound: N#Cc1ccnc(N2C(=O)CC[C@H]2C(=O)N(c2cncc(F)c2)[C@H](C(=O)NC2CC(F)(F)C2)c2ccccc2Cl)c1 [COMPOUND 1, (S)—N—((S)-1-(2-chlorophenyl)-2-((3,3-difluorocyclobutyl)amino)-2-oxoethyl)-1-(4-cyanopyridin-2-yl)-N-(5-fluoropyridin-3-yl)-5-oxopyrrolidine-2-carboxamide]
- Geometric mean ratio (%) AUC0-t [1, 3]: 125.6%
- Geometric mean ratio (%) AUC0-∞ [1, 3]: 124.3%
- Geometric mean ratio (%) Cmax [1, 3]: 197.8%
- Increase in extent of exposure as assessed by AUC0-t [1, 4]: 25.6%
- Increase in extent of exposure as assessed by AUC0-∞ [1, 4]: 24.3%
- Increase in mean Cmax [1, 4]: ~2 fold
- Increase in AUC ([1]; high-fat meal prior to dosing compared with fasted, 500 mg single oral dose): ~25%
- Tmax ([1]; human, po, 500 mg, fasted, n = 29, median, read-out: Tmax): 3 h
- Tmax ([1]; human, po, 500 mg, fed (high-fat meal), n = 27, median, read-out: Tmax): 3 h
- half-life ([1]; human, po, 500 mg, fasted, n = 29, arithmetic mean): 55.4 h
- AUC(0-inf) [1, 5]: 143 µg·h/mL
- AUC(0-t) [1, 5]: 136 µg·h/mL
- Cmax [1, 5]: 2270 ng/mL
- half-life ([1]; human, po, 500 mg, fed (high-fat meal), n = 27, arithmetic mean): 53.2 h
- AUC(0-inf) [1, 6]: 174 µg·h/mL
- AUC(0-t) [1, 6]: 166 µg·h/mL
- Cmax [1, 6]: 4490 ng/mL
- Tmax ([1]; fasted, n = 29, median): 3.03 h
- Safety and tolerability [2]: safe and well tolerated
